According to patent publication US7893199B2, “Peptides having neutrophil-stimulating activity” (National University Corporation Gunma University, priority 2006, dated 2011):
Blank lines part the entries; values can stand above or below the substance they belong to. Where no end group is shown, it is not given here. The star is where a group is joined. Biotin = O=C1N[C@H]2[C@H](CS[C@H]2CCCCC(=O)*)N1

Columns and labels:
[1] = tested on: G protein in the differentiated HL-60 cell membrane fraction; test: G protein activation ability (GTP hydrolysis) in cell membrane fraction; type: biochemical, human
Protocol: (4) Measurement of G Protein Activation Ability
The cells were collected by centrifuging the suspension of the differentiated HL-60 cells (1,000 rpm, 5 minutes, 4° C.). After that, the following operation was repeated three times to wash the cells: ice-cooled PBS was added to the cells; the mixture was suspended by inversion; and the mixture was centrifuged (1,000 rpm, 5 minutes, 4° C.). Then, the precipitated cells were suspended in a buffer for preparing a cell membrane fraction (20 mM Tris-HCl, 250 mM sucrose, 1.5 mM MgCl2, 3 mM benzamidine hydrochloride monohydrate, 1 μM leupeptin, 1 μM PMSF, 2 μg/ml trypsin inhibitor, pH 7.5) and a cell homogenate was prepared using nitrogen pressing-depressing type cell homogenizing apparatus (nitrogen pressure: 350 psi). After that, the resultant was ultracentrifuged (20,000 g, 4° C., 30 minutes) to remove the supernatant, and the precipitate was suspended in a membrane fraction buffer (20 mM Tris-HCl, 1 mM EDTA, 1 mM DTT, 77.5 mTIU/ml aprotinin, pH 7.5) and used as a cell membrane fraction. After dispensed, the cell membrane fraction was stored at −80° C. The activity of the G protein was quantified using the activity to hydrolyze GTP to GDP as an index. […] The mixture was centrifuged (15,000 rpm, 1 minute, 4° C.), and the radioactivity of the supernatant was measured.

[2] = tested on: differentiated HL-60 cells; test: migration activity (Chemotaxis Index) of differentiated HL-60 cells; type: cell-based, human
Protocol: (3) Measurement of Migration Activity
The cells were collected by centrifuging the suspension of the differentiated HL-60 cells (1,000 rpm, 5 minutes, 4° C.). After that, the following operation was repeated three times to wash the cells: 10% FBS-RPMI1640 was added to the cells; the mixture was suspended by inversion; and the mixture was centrifuged again (1,000 rpm, 5 minutes, 4° C.). Then, a medium (10% FBS-RPMI1640) was added so that a cell density was 4×10^6 cells/ml, thereby a cell suspension was prepared. Subsequently, 1 ml of each peptide solution (dissolved in 10% FBS-RPMI 1640) was transferred to each well of a 24-well plate, and the plate was incubated at 37° C. for 20 minutes. After that, 500 μl of the cell suspension (2×10^6 cells) were put in Chemotaxicell (KURABO […] LTD., 3 μm) and the Chemotaxicell was set in a plate, followed by incubation in the presence of 5% CO2 at 37° C. for 1 hour. Then, the Chemotaxicell was removed and the solution in each well of the plate was pipetted. The cells migrated to the plate side was suspended well and the number of the cells were measured. Note that the migration activity by the peptide was represented by a ratio of the number of the cells to the number of the cells passing the Chemotaxicell at the time of non-stimulation (Chemotaxis Index, CI).

bovine Gi1-G protein = target: T1, bovine Gi1-G protein (Bos taurus, UniProt P63097); test: G protein activation ability (GTP hydrolysis) with purified Gi1; type: biochemical
T1 construct: made in house; host or cells: E. coli
T1 sequence (P63097 whole entry): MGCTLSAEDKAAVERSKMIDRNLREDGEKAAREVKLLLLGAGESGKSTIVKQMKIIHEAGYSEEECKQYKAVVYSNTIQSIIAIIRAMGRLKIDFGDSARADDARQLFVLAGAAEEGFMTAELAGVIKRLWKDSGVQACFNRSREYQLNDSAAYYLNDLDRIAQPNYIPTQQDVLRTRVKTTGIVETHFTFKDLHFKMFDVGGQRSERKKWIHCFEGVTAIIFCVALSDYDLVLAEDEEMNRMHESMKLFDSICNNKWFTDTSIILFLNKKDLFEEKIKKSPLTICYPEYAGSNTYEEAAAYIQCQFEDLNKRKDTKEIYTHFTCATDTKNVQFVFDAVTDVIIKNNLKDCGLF

[3] = tested on: HL-60 cells differentiated into the neutrophil-like cells; test: β-hexosaminidase-secreting activity of neutrophil-like differentiated HL-60 cells; type: cell-based, human; conditions: differentiated HL-60 cells; read-out: EC50, β-hexosaminidase-secreting activity
From the text: (1) Culture of Cell and Differentiation Into Neutrophil-like Cell
In this time, the cells were subcultured at a cell density of 1.0×10^5 cells/ml to 1.5×10^6 cells/ml, the number of cells was counted using a microscope, and the state of the cells was also confirmed.
The HL-60 cells were differentiated into neutrophil-like cells by setting the cell density in the flask to about 1.0×10^6 cells/ml, adding dibutylyl-cAMP (db-cAMP) as a differentiation-inducing agent so as to have a final concentration of 500 μM, and incubating the cells in the presence of CO2 at 37° C. for 3 days.
(2) Stimulation of Cell and Measurement of β-Hexosaminidase-secreting Activity
The cells were collected by centrifuging the suspension of the differentiated HL-60 cells (1,000 rpm, 5 minutes, 4° C.). After that, the following operation was repeated three times to wash the cells: Hepes buffered Hank's solution (HBHS) containing ice-cooled 0.1% BSA (1.2 mM CaCl2.2H2O, 5.4 mM KCl, 0.44 mM KH2PO4, 0.49 mM MgCl2.6H2O, 0.41 mM MgSO4.7H2O, 136.9 mM NaCl, 0.34 mM Na2HPO4, 10 mM Hepes, 4.2 mM NaHCO3, 5.5 mM D-glucose, pH 7.4) was added to the cells; the mixture was suspended by inversion; and the mixture was centrifuged again (1,000 rpm, 5 minutes, 4° C.). Subsequently, HBHS was added so that the mixture has a cell density of 5.6×10^6 cells/ml and suspended. Then, DNase I and cytochalasin B were each added so as to have a final concentration of 5 μg/ml, and the cell suspension was dispensed in an amount of 90 μl (5×10^5 cells) on ice. […] After the cell stimulation for 10 minutes, 100 μl of an ice-cooled stop solution (25 mM Tris, 123 mM NaCl, 2.7 mM KCl, pH 7.4) were added, and immediately, the mixture was centrifuged (5,000 rpm, 1 minute, 4° C.). 200 μl of the obtained supernatant were transferred to a new tube.
The amount of β-hexosaminidase released in the supernatant of the reaction solution was measured by an enzyme reaction using p-nitrophenyl-N-acetyl-μ-D-glucosaminide as a substrate (Non-patent Document 12). That is, the supernatant of the reaction solution was dispensed in an amount of 90 μl to a 96-well plate. 60 μl of a substrate solution (10 mM p-nitrophenyl-N-acetyl-μ-D-glucosaminide, 40 mM citrate, 70 mM Na2HPO4, pH 4.5) were added to each well, followed by incubation at 37° C. for 1 hour. After the reaction, 100 μl of a stop solution (0.4 M glycine, pH 10.7) were added to each well and a color of the released p-nitrophenol was developed. The color development was measured with a plate reader at adsorption at 405 nm (reference: 492 nm). The all amount of β-hexosaminidase contained in the cells was quantified by treating the cells with Triton X-100 having a final concentration of 0.05%. In addition, the amount of β-hexosaminidase secreted by stimulation of 10 μM fMLP was also measured, and the ratio of the secretion amount by stimulation with each peptide to the above sectretion amount by stimulation with fMLP.

[4] = tested on: neutrophil-like differentiated HL-60 cells; test: binding of biotinylated peptides to cell surfaces (streptavidin-Alexa488 fluorescence microscopy); design: species or system human; conditions: peptide 10 μM, 37° C., 30 minutes
Protocol: (§1) Thus, it was confirmed that the synthesized functional peptide derivatives had the activities. Therefore, subsequently, in order to identify the binding sites of the functional peptides in the cells, these peptides (final concentration 10 μM) were incubated with the neutrophil-like differentiated HL-60 cells or undifferentiated HL-60 cells prepared in Example 3-(3) at 37° C. for 30 minutes. After that, the obtained cell suspension was centrifuged (1,000 rpm, 5 minutes, 4° C.) and the supernatant was removed. Further, HBHS was added and the mixture was centrifuged to wash the cells. Then, the cells were resuspended in HBHS. A streptavidin-HBHS labeled with a fluorescence, Alexa488 (Molecular probe, Invitrogen Corporation.) was added thereto, and the mixture was centrifuged, and the supernatant was removed. Further, the following operation was repeated three times to wash the cells: HBHS was added and the mixture was centrifuged.

[5] = tested on: undifferentiated HL-60 cells; test: as above; design: species or system human; conditions: peptide 10 μM, 37° C., 30 minutes
Protocol: as §1

[6] = target: T2, heat shock 70 kDa protein 8 isoform 1 (SEQ ID NO: 52) (Homo sapiens, UniProt P11142); test: chemical crosslinking experiment, streptavidin beads, electrophoresis (receptor identification); type: binding; conditions: peptide 10 μM; for bands of specifically binding proteins in SDS gel electrophoresis: differentiated HL-60 cell lysate, silver stain
T2 construct: endogenous in cells; host or cells: neutrophil-like differentiated HL-60 cells
T2 sequence (P11142 whole entry, canonical isoform): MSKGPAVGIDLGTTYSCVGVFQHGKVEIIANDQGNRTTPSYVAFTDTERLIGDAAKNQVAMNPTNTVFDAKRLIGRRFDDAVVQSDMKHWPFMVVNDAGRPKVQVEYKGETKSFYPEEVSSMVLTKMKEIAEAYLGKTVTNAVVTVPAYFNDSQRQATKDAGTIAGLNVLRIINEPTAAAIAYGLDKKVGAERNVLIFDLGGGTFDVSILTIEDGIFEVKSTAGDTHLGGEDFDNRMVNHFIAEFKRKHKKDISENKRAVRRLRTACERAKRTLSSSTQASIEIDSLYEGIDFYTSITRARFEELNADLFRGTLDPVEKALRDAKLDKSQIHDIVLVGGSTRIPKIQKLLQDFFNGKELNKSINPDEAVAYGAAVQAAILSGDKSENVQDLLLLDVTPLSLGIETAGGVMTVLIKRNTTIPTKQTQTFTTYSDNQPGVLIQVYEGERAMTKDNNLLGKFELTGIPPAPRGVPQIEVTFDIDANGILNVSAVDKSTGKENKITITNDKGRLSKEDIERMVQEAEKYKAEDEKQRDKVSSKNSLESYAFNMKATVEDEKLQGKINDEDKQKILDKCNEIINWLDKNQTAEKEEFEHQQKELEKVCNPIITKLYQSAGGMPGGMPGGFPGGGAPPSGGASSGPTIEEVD
Protocol: Then, in order to identify directly the receptor molecules to which these functional peptides are bound, the following chemical crosslinking experiment was performed. That is, the HL-60 cells differentiated into the neutrophil-like cells were suspended in HBHS (not containing 0.1% BSA). The suspension was centrifuged (1,000 rpm, 5 minutes, 4° C.) and the supernatant was removed. The cells were suspended again in the HBHS not containing BSA so as to have the cell density of 5.6×10^6 cells/ml. The obtained cell suspension was preincubated at 37° C. for 10 minutes at first, and 1/10 volume of mitocryptide-3 and -5, [Cys^0]mitocryptide-3, [Cys^0]mitocryptide-5, [Cys^24]mitocryptide-3, and peptides obtained by introducing biotin into the N terminals thereof (N-biotinyl-mitocryptide-3, N-biotinyl-mitocryptide-5, N-biotinyl-[Cys^0]mitocryptide-3, N-biotinyl-[Cys^0]mitocryptide-5, and N-biotinyl-[Cys^24]mitocryptide-3) were added to have the final concentration of 10 μM, followed by incubation at 37° C. for 30 minutes. After that, the cell suspension was centrifuged (5,000 rpm, 4° C., 1 minute) and the supernatant was removed. The resultant cells were resuspended in HBHS not containing BSA and centrifuged again to wash the cells. 1 ml of a buffer for dissolving cells (100 mM NaCl, 20 mM Tris-HCl, 1 mM EDTA, 77.5 mTIU/ml aprotinin, 1 μM leupeptin, 1 μg/ml pepstatin A, 1 μg/ml phosphoramidone, 1% CHAPS, pH 7.5) with respect to 1 ml of the original cell suspension was added to the cell precipitate, and the mixture was incubated at 4° C. for 30 minutes to dissolve the cells, thereby a cell lysate was prepared. The cell lysate was centrifuged (15,000 rpm, 4° C., 15 minutes) and the supernatant was centrifuged again in the same condition. The obtained supernatant was incubated with streptavidin beads at 4° C. for 30 minutes, then, the beads were washed by centrifugation with the buffer for dissolving cells three times. Further, the beads were treated by heat at 100° C. for 10 minutes in the buffer for dissolving cells, and the mixture was centrifuged. The obtained supernatant was subjected to an SDS gel electrophoresis to separate the contained protein. Then, the gel was stained by silver stain method, thereby the proteins were analyzed. […] As a result, two specific spots were detected (FIG. 15-A). Therefore, the protein was extracted and degraded with trypsin, and then, the degraded proteins were analyzed by mass spectrometry.

Substance: MFPLVKSALNRLQVRSIQQTMARQ [No. 015]
activation of G protein [1]: activated
concentration of migration activity compared with that of β-hexosaminidase-secreting activity [2]: confirmed at the almost same concentration
desensitization of migration activity with increasing concentration of the peptide [2]: subjected to desensitization completely
activation of purified Gi1 protein (bovine Gi1-G protein): activated
EC50 [3]: 380 nM

Substance: N-biotinyl-Cys-Gln-Leu-Trp-Ala-Val-Gly-Ser-Phe-Met-NH2 (Biotin-CQLWAVGSFM-NH2; SMILES CSCC[C@H](NC(=O)[C@H](Cc1ccccc1)NC(=O)[C@H](CO)NC(=O)CNC(=O)[C@@H](NC(=O)[C@H](C)NC(=O)[C@H](Cc1c[nH]c2ccccc12)NC(=O)[C@H](CC(C)C)NC(=O)[C@H](CCC(N)=O)NC(=O)[C@H](CS)NC(=O)CCCC[C@@H]1SC[C@@H]2NC(=O)N[C@@H]21)C(C)C)C(N)=O) [reference compound]
binding to cell surfaces [4]: no binding was confirmed at all

Substance: N-biotinyl-[Cys^24]mitocryptide-3: [Cys^24]mitocryptide-3 with biotin introduced into the N terminal (Biotin-MLWNLLALHQIGQRTISTASHRHC)
bands of specifically binding proteins in SDS gel electrophoresis [6]: five bands indicating specific binding

More lines, main results first:

bands of specifically binding proteins in SDS gel electrophoresis [6]: five bands indicating specific binding
Substance: N-biotinyl-[Cys^0]mitocryptide-3: [Cys^0]mitocryptide-3 with biotin introduced into the N terminal (Biotin-CMLWNLLALHQIGQRTISTASHRH)
binding to cell surfaces [4]: bound to the surfaces of the neutrophil-like differentiated HL-60 cells specifically
binding to cell surfaces [5]: less bound to the surfaces of the undifferentiated HL-60 cells

binding of heat shock 70 kDa protein 8 isoform 1 to the peptide ([6]; differentiated HL-60 cells): bound
Substance: N-biotinyl-[Cys^0]mitocryptide-5: [Cys^0]mitocryptide-5 with biotin introduced into the N terminal (Biotin-CMFPLVKSALNRLQVRSIQQTMARQ)
binding to cell surfaces [4]: bound to the surfaces of the cells specifically
